From patent US10710978B2, “STK4 inhibitors for treatment of hematologic malignancies” (Dana-Farber Cancer Institute, Inc., priority 2015, dated 2020)
Values joined by “and” are separate entries in the source; they are usually repeats but may differ in a detail not shown here. Identical values can stand only once. Like-named read-outs stand apart in the source and are kept apart here.

Legend:
Assay in all cases: KiNativ assay
Format in all cases: binding
AKT2, AKT3 = settings: H929 live cell; for % inhibition (range): 10 μM
Method in brief: (§1)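 KiNativ profiling in live H929 cells; single concentration 10 μM, n=2; IC50 from MS measurement.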

ARAF = ARAF (Homo sapiens (Human), UniProt P10398); settings: H929 live cell
Method in brief: as §1

CDK9 = CDK9 (Homo sapiens (Human), UniProt P50750); settings: H929 live cell
Method in brief: as §1

CK1d, CK1e = settings: H929 live cell; for % inhibition (range): 10 μM
Method in brief: as §1

CK1g1 = CK1g1 (Homo sapiens (Human), UniProt Q9HCP0); settings: H929 live cell
Method in brief: as §1

DNAPK = DNAPK (Homo sapiens (Human), UniProt P78527); settings: H929 live cell; for % inhibition (range): 10 μM
Description: Biochemical IC50s of the compounds of the present disclosure against various kinases were measured in a KiNativ assay. Compounds were screened in duplicate at 10 μM in H929 live cell. IC50 was measured via Mass spectroscopy (MS).

GPRK5 = GPRK5 (Homo sapiens (Human), UniProt P34947); settings: H929 live cell
Method in brief: as §1

KHS2 = KHS2 (Homo sapiens (Human), UniProt Q8IVH8); settings: H929 live cell
Method in brief: as §1

QSK = QSK (Homo sapiens (Human), UniProt Q9Y2K2); settings: H929 live cell
Method in brief: as §1

RIPK3 = RIPK3 (Homo sapiens (Human), UniProt Q9Y572); settings: H929 live cell
Method in brief: as §1

ROCK1, ROCK2 = settings: H929 live cell; for % inhibition (range): 10 μM
Method in brief: as §1

SGK2 = SGK2 (Homo sapiens (Human), UniProt Q9HBY8); settings: H929 live cell
Method in brief: as §1

Sequence of ARAF (P10398 whole entry): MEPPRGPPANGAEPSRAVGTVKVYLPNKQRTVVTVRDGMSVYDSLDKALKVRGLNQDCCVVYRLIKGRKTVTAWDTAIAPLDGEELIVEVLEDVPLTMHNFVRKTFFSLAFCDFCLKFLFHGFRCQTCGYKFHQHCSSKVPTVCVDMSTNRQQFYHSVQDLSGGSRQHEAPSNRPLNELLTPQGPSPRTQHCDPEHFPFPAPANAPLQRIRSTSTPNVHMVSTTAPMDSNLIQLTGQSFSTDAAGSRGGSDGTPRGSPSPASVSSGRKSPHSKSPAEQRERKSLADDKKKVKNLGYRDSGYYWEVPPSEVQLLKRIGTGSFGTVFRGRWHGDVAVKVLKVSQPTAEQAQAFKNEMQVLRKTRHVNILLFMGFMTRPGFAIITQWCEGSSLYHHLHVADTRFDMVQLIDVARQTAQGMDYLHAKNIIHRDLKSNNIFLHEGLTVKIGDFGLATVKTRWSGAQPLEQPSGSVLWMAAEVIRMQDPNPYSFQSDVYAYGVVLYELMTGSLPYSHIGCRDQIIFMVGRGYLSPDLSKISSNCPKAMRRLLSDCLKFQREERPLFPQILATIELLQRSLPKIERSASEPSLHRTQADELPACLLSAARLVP
Sequence of SGK2 (Q9HBY8 whole entry): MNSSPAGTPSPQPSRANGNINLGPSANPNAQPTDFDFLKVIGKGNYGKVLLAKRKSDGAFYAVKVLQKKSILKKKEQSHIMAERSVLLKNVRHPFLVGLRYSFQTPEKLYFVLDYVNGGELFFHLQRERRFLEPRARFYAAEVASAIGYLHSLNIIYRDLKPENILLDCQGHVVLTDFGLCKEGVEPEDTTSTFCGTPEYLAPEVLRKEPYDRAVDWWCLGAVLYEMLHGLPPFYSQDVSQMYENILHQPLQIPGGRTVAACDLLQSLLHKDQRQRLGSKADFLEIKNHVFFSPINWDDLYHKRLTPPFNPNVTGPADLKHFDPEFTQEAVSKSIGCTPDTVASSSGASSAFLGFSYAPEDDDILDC
Sequence of DNAPK (P78527 whole entry): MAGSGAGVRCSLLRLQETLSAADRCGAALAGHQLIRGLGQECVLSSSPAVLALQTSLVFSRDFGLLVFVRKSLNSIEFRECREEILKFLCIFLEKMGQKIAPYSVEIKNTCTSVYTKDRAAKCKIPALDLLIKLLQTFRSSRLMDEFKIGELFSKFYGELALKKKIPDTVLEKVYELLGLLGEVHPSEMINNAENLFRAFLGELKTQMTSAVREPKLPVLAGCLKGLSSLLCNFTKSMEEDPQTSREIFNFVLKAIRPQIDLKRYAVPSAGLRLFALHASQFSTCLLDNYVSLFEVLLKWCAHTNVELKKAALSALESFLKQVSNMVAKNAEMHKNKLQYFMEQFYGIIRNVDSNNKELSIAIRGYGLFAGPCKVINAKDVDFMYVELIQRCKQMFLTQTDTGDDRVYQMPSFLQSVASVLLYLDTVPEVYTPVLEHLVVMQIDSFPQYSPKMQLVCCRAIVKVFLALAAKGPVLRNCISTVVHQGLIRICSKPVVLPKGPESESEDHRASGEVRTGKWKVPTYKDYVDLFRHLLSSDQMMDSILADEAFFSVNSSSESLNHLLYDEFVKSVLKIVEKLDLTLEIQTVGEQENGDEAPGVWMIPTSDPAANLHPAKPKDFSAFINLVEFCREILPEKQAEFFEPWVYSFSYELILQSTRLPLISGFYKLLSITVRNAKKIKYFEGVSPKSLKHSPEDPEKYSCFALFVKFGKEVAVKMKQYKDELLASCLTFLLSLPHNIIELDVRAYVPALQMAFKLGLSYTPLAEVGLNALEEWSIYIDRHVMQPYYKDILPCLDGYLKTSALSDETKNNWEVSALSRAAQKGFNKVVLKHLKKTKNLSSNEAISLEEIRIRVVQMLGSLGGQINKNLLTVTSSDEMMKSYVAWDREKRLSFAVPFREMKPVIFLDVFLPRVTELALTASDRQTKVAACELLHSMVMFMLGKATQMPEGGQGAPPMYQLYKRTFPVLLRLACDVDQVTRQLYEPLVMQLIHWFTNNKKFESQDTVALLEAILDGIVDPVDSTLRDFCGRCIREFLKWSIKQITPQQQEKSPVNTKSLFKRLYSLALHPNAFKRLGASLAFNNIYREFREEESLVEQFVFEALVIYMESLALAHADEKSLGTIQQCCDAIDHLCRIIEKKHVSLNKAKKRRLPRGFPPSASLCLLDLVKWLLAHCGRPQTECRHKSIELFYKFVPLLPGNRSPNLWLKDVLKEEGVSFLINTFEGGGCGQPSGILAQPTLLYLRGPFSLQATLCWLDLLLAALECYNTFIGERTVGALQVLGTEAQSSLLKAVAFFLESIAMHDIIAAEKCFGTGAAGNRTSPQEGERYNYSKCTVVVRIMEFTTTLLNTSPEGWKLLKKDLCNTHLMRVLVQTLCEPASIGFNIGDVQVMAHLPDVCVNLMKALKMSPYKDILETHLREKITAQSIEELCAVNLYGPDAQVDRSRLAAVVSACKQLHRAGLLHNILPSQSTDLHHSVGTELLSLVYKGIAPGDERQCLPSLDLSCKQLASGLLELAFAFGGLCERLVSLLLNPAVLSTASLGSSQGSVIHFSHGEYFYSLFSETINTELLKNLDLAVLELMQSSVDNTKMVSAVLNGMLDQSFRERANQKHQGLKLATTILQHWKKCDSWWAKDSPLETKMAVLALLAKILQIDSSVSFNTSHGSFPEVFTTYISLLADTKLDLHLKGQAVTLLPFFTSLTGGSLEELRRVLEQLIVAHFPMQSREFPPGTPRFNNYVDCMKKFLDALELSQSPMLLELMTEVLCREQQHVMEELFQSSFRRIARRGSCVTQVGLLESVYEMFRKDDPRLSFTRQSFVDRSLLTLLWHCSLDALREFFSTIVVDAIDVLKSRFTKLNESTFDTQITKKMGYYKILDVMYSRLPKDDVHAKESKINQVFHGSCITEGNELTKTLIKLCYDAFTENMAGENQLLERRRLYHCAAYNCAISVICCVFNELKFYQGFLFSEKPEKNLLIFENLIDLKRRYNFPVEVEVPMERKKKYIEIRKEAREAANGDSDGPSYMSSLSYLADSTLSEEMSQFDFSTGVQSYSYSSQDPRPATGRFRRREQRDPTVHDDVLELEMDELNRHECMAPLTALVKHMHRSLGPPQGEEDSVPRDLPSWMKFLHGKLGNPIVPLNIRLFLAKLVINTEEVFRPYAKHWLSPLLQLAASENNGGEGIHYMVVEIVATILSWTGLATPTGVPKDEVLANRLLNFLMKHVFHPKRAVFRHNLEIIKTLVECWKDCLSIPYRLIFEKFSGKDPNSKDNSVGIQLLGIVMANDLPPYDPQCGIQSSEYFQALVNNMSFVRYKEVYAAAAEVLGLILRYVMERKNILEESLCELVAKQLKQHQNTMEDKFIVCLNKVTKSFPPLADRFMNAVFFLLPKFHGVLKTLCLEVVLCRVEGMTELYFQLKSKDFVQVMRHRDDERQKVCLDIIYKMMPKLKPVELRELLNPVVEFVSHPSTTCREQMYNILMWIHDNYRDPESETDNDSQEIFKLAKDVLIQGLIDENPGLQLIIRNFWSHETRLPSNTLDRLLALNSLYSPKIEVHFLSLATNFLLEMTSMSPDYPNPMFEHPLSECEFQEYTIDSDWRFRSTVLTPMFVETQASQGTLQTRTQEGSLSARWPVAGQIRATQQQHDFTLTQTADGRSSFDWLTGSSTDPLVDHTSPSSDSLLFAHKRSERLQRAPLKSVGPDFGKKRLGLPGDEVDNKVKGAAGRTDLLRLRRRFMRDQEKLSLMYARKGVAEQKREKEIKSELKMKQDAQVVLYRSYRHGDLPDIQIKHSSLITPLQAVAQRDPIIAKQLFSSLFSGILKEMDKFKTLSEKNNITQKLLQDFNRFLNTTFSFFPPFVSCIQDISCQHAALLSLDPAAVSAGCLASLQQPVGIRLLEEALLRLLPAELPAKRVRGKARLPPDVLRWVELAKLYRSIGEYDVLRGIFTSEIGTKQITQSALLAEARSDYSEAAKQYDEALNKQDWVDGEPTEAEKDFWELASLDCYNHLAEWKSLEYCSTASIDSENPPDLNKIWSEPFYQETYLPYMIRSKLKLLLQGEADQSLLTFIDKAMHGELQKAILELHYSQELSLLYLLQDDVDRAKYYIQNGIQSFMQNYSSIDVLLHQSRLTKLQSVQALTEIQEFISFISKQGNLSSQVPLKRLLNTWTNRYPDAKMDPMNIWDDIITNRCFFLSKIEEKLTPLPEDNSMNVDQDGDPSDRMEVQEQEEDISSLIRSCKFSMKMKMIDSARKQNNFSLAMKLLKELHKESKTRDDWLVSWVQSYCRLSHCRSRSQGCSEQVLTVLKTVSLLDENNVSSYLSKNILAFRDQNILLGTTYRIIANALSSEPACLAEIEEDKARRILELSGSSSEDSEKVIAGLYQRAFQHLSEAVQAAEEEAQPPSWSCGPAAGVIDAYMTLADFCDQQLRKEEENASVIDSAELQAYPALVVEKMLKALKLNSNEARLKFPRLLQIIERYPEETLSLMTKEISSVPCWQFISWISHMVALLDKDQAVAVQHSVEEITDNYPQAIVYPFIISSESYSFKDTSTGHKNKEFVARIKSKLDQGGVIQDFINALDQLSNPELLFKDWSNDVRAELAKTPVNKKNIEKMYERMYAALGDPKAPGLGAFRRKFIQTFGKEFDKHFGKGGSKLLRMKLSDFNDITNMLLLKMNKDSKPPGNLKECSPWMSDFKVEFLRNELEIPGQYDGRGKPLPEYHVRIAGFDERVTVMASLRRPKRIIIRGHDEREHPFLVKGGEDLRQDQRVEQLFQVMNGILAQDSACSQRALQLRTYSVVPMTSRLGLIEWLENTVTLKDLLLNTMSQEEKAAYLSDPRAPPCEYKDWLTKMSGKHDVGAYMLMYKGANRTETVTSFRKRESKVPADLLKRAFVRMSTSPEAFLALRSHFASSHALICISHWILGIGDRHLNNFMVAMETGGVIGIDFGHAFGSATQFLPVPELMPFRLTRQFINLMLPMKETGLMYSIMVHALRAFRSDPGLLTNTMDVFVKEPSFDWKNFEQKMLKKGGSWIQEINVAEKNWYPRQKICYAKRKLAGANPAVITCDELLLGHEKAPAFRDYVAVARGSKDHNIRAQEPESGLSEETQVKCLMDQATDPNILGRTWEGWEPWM

| SMILES | % inhibition (range) (AKT2, AKT3) [%] | inhibition (10 μM) (AKT2, AKT3) [%] | inhibition at 10 µM (ARAF; read-out: % inhibition (range)) [%] | inhibition at 10 µM (ARAF; read-out: inhibition (10 μM)) [%] | inhibition at 10 µM (CDK9; read-out: % inhibition (range)) [%] | inhibition at 10 µM (CDK9; read-out: inhibition (10 μM)) [%] | inhibition (10 μM) (CK1d, CK1e) [%] | inhibition at 10 µM (CK1g1; read-out: % inhibition (range)) [%] | inhibition at 10 µM (CK1g1; read-out: inhibition (10 μM)) [%] | inhibition (10 μM) (DNAPK) | inhibition at 10 µM (GPRK5; read-out: % inhibition (range)) [%] | inhibition at 10 µM (GPRK5; read-out: inhibition (10 μM)) [%] | inhibition at 10 µM (KHS2; read-out: % inhibition (range)) [%] | inhibition at 10 µM (KHS2; read-out: inhibition (10 μM)) [%] | inhibition at 10 µM (QSK; read-out: % inhibition (range)) [%] | inhibition at 10 µM (QSK; read-out: inhibition (10 μM)) [%] | inhibition at 10 µM (RIPK3; read-out: inhibition (10 μM)) [%] | % inhibition (range) (ROCK1, ROCK2) [%] | inhibition (10 μM) (ROCK1, ROCK2) [%] | inhibition at 10 µM (SGK2; read-out: % inhibition (range)) [%] | also measured |
| --- | --- | --- | --- | --- | --- | --- | --- | --- | --- | --- | --- | --- | --- | --- | --- | --- | --- | --- | --- | --- | --- |
| Nc1ncc(-c2cccc([N+](=O)[O-])c2F)cc1-c1ccc2c(c1)CCNC2=O [Compound I-9, 6-(2-amino-5-(2-fluoro-3-nitrophenyl)pyridin-3-yl)-3,4-dihydroisoquinolin-1(2H)-one] | 0.0 | −1.3 | 0 | 9.5 | 50 to 75 | 65.8 | >95 | 75 to 90 | > 85 | 94.0% | 0 | 19.6 | 50 to 75 | 69.5 | 50 to 75 | 72.8 | -33.4 | 0.0 | −55.8 | 0 | % inhibition (range) (CK1d, CK1e): >90%; % inhibition (range) (DNAPK): >90%; inhibition at 10 µM (DNAPK; read-out: % inhibition (range)): 75 to 90%; inhibition at 10 µM (DNAPK; read-out: inhibition (10 μM)): 79.4%; inhibition at 10 µM (RIPK3; read-out: % inhibition (range)): 0%; inhibition at 10 µM (SGK2; read-out: inhibition (10 μM)): -5.4% |
| Nc1ncc(-c2cccc3ncsc23)cc1-c1ccc2c(c1)CCNC2=O [Compound I-13, 6-(2-amino-5-(benzo[d]thiazol-7-yl)pyridin-3-yl)-3,4-dihydroisoquinolin-1(2H)-one] | 0.0 | 19.0 | 0 | 16.7 | 35 to 50 | 41.1 | 58.9 | 75 to 90 | > 85 | 59.4% | 0 | -12 | 0 | 1.7 | 35 to 50 | 47.8 | -25.9 | 0.0 | −11.4 | 0 | % inhibition (range) (DNAPK): 50-75%; inhibition at 10 µM (DNAPK; read-out: % inhibition (range)): 35 to 50%; inhibition at 10 µM (DNAPK; read-out: inhibition (10 μM)): 44.7%; inhibition at 10 µM (RIPK3; read-out: % inhibition (range)): 0%; inhibition at 10 µM (SGK2; read-out: inhibition (10 μM)): 22.1% |
| CN(C1CC1)S(=O)(=O)c1ccc(-c2cnc(N)c(-c3ccc4c(c3)CCNC4=O)c2)c(F)c1 [Compound I-28, 4-(6-amino-5-(1-oxo-1,2,3,4-tetrahydroisoquinolin-6-yl)pyridin-3-yl)-N-cyclopropyl-3-fluoro-N-methylbenzenesulfonamide] | 0.0 | 14.9 | 0 | 8 | 0 | 28.9 | 68.2 | 75 to 90 | > 85 | 42.6% and 82.1% | 0 | 10.7 | 50 to 75 | 68.3 | 0 | 30.1 | -121 | 0.0 | 20.8 | 0 | % inhibition (range) (CK1d, CK1e): 50-75%; inhibition at 10 µM (SGK2; read-out: inhibition (10 μM)): -30.3% |
